Patent US20020035146A1, “Antifungal compounds and compositions and antifungal use thereof” (priority 2000, published 2002)

Assays:
[1] = test system: Pythium ultimum; format: cell-based; details: mycelial homogenate, 25° C., 2 days, compound encapsulated in α-cyclodextrin (0.14% by weight)
[2] = test system: Pyricularia oryzae; format: cell-based; details: spore suspension, 25° C., 5 days, compound encapsulated in α-cyclodextrin (0.14% by weight)
[3] = test system: Rhizoctonia solani; format: cell-based; details: mycelial homogenate, 25° C., 5 days, compound encapsulated in α-cyclodextrin (0.14% by weight)
[4] = test system: Colletotrichum lagenarium; format: cell-based; details: spore suspension, 25° C., 5 days, compound encapsulated in α-cyclodextrin (0.14% by weight)
[5] = test system: Phytophthora capsici; format: cell-based; details: spore suspension, 25° C., 5 days, compound encapsulated in α-cyclodextrin (0.14% by weight)
[6] = test system: Botrytis rot on rose petals; assay: Suppression of Botrytis rot on rose petals; format: in vivo; details: white rose petals exposed to 100 ppm in the gas phase for 90 minutes before inoculation; assessed after 10 days; two trials combined; control 66.7
Method: Freshly cut white roses were purchased from Zieger & Sons, Inc. rose growers. Non senescing petals were chosen to perform the experiment. Petals were placed in plastic petri dishes (100×20 mm) each containing a moist #3 Whatman filter paper with one petal per petri dish.
Compound 1, formulated as in Example 1 (0.778 g) was dissolved in 20 ml hot water in a 100 ml jar sealed with a cap. When the powder was dissolved, the jar was placed in a 4.8 liter cabinet containing three petri dishes (without the lids) with petals. The cap of the jar was quickly removed and the cabinets sealed for ninety (90) minutes. The concentration of Compound 1 in the gas phase was 100 ppm.
After exposure to Compound 1 at 100 ppm the petals were inoculated with two 20μl drops of spore suspension containing 1×10^6 spores per ml. Controls were inoculated without prior exposure to Compound 1.
Lids were placed on the petri dishes and the dishes were transferred to a plant growth chamber set at a 12 hour photoperiod, a 20° C. day temperature and 18° C. night temperature, and 70% relative humidity to allow disease development. The number of petals with sporulating lesions was determined after 10 days. Two trials were conducted with 3 petals per treatment in each trial. The combined results from the two trials were as follows: […]

[7] = test system: Septoria nodorum; format: cell-based; details: spore suspension, 25° C., 2 days, compound encapsulated in α-cyclodextrin (0.14% by weight)
[8] = test system: Botrytis cinerea spores; assay: Inhibition of germination of Botrytis cinerea spores (germination-associated adhesion in microtiter plates, sulforhodamine B); format: cell-based; details: B. cinerea spores in SDB, 25° C., 5.5 hours; compound 1 encapsulated in α-cyclodextrin (0.14% by weight)
Method: Compounds were evaluated for the ability to inhibit germination of Botrytis cinerea spores using an assay which measures the inhibition of germination-associated adhesion in microtiter plates. […] This solution was then diluted with SDB to give a solution concentration of compound 2 of 1000 ppm. Comparison compound, AVG, was dissolved in SDB at 5 mg/ml. Two-fold serial dilutions of the solutions of these compounds in SDB were made in 100 μl aliquots of SDB in 96-well microtiter plates. Spore suspension of B. cinerea (100 μl at 2×10^5 spores/ml) was added to the wells. The plates were then incubated at 25° C. for 5.5 hours at which time spores in control wells had germinated. The medium containing unbound spores was removed by inverting and flicking the microtiter plate to remove as much liquid as possible. Quantitation of the adhered spores was achieved by measuring their cellular protein content using sulforhodamine B (see Skehan et al., Journal of the National Cancer Institute, 82, 1107-1112 (1990)), measuring absorbance at 564 nm. Inhibition of adhesion was determined by comparing the absorbance value in a well containing fungicide with the absorbance in control wells without fungicide. EC50 values for germination inhibition were determined from dose-response curves.

[9] = test system: Botrytis cinerea; assay: Technical material v. formulation: inhibition of fungal growth in sealed vials (sulforhodamine B); format: cell-based; details: technical material added in acetone, 16 hours
Method: Since compound 1 is a gas at room temperature its activity as a technical material in solution was evaluated in sealed vials with a small head space as follows. Compound 1, formulated by encapsulation in a-cyclodextrin, was also tested for comparison.
Compound 1 (technical material) was added to 21×50 mm glass vials on dry ice as the appropriate amount of a 14% (w/v) solution in acetone to provide the desired concentrations. (The acetone solutions were kept on dry ice or in a freezer at −80° C. until used.) Controls received the same volumes of acetone alone. A spore suspension (8 ml) of Botrytis cinerea at 2.5×10^4 spores/ml in two-fold diluted SDB was added to each vial. The vials were immediately sealed with polyethylene plugs and placed in a […] incubator for 16 hours. The extent of fungal growth in the vials was determined by measuring their cellular protein content using sulforhodamine B (Skehan, et al., Journal of the National Cancer Institute 82, 1107-1112 (1990)), and the percent inhibition of growth was calculated by comparing growth in the treatments with growth in the controls.
The desired amounts of Compound 1, formulated by encapsulation in α-cyclodextrin ([…]) were added to glass vials. A spore suspension (8 ml) of Botrytis cinerea at 2.5×10^4 spores/ml in two-fold diluted SDB was added to each vial, and vials processed as described above.

CC1=CC1 [Compound 1, 1-methylcyclopropene]
EC50 (mycelial growth) [1]: 2.6 ppm | EC50 (mycelial growth) [2]: 6.7 ppm | EC50 (mycelial growth) [3]: 7.4 ppm | EC50 (mycelial growth) [4]: >70 ppm | EC50 (mycelial growth) [5]: 6.9 ppm | Petals with sporulating lesions (%) [6]: 16.7% | EC50 (mycelial growth) [7]: 22.5 ppm | EC50 for germination inhibition [8]: 37 ppm | % Inhibition of growth ([9]; 175 ppm): 30.1% | % Inhibition of growth ([9]; 350 ppm): 99.4% | % Inhibition of growth ([9]; 525 ppm): 99.8%

CCCCCCCCC1=CC1(F)F [Compound 2, 1-n-octyl-3,3-difluorocyclopropene]
EC50 for germination inhibition [8]: 3.3 ppm
